For one data set, the target named is T1, Human DPP-I (Homo sapiens, UniProt P53634).
T1 construct: purchased UniZyme A/S
Description: Human Dipeptidyl Peptidase I (DPP-I) assay, AFC substrate. In kind it is biochemical. As to conditions: Gly-Phe-AFC substrate, pH 6.0, read-out: Primary enzymatic screening (IC50) DPP-I.

A further data set concerns the target T2, Human liver cathepsin B (Homo sapiens, UniProt P07858).
T2 construct: Human liver cathepsin B (Enzyme System Products, CAT-B); purchased Enzyme System Products CAT-B; host or cells: human liver
Description: Human liver cathepsin B assay. In kind it is biochemical. The protocol: Human Liver Cathepsin B Assay
Using this assay, the selectivity of a compound of the invention for hDPP-I over human cathepsin B was determined, using a fluorogenic substrate.
0.1 M MES buffer (1.95 g; M=195.2) and 1 mM EDTA (37 mg; M=372.2) were mixed in 100 mL H2O and pH adjusted to 6.1. DTT (10 μL, 0.5 M) was added for activation of the enzyme […].
Human liver cathepsin B (Enzyme System Products, CAT-B; stock 25 μg/54 μL=463 ng/μL). One aliquot was diluted to a concentration of 40 ng/μL by adding 53 μL assay buffer (without DTT). Just prior to experiment, two more dilution steps were performed: 4 ng/μL: 5 μL (40 ng/μL)+45 μL buffer (without DTT) 0.1 ng/μL: 5 μL (4 ng/μL)+[…] buffer (without DTT)
Boc-Leu-Arg-Arg-AFC.2TFA (Enzyme System Products AFC113). Stock solution made (20 mM; 15.1 mg dissolved in 1 ml DMSO). Diluted further in H2O to 10 mM. Km for this substrate has been determined to be 600 μM.
The assay was performed in 96-well plates. 84 μL assay buffer was added to the well followed by 10 μL 1% DMSO in assay buffer (control) or a compound, of the invention (10 μM in the assay). […] The excitation wavelength was 400 nm, and the emission was measured at 505 nm for 10-20 minutes at 37° C. […] In the software (SOFTmax Pro) used for data collection from the fluorometer (Molecular Devices: Gemini XS), it was ensured that the measured slopes were linear (R^2>0.99). […]

Data set [1] concerns the target T3, cellular rat DPP-I (RBL-2H3 cells) (Rattus norvegicus, UniProt P80067).
T3 construct: The RBL-2H3 cells (basophilic leukaemia cell line), were obtained from the American Type Culture Collection; endogenous in cells; host or cells: RBL-2H3 cells (ATCC)
T3 sequence (P80067 25-462): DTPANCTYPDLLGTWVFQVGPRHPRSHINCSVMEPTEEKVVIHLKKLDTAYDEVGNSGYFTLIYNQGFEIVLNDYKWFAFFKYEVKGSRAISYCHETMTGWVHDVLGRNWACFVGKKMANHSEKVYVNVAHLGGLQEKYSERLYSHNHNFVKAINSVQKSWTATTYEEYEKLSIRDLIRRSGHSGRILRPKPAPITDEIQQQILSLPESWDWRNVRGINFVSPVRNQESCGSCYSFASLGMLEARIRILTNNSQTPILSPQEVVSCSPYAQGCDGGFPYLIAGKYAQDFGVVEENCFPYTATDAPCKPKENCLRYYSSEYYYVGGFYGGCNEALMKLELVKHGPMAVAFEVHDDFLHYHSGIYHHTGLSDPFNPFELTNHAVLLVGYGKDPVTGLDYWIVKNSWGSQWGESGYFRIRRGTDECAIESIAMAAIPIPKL
Kind of data set: Cellular DPP-I assay. In kind it is cell-based. As to conditions: concentration and time not given. The protocol: The following assay was used to the determine the inhibitory effect of compounds of the invention on cellular rat DPP-I.
The RBL-2H3 cells (basophilic leukaemia cell line), were obtained from the American Type Culture Collection. Cells were cultured at 37° C. in humidified air atmosphere with 5% CO2. Cells were grown in complete media (CM) consisting of RPMI (GIBCO) supplemented with 10% heat-inactivated foetal bovine serum (FBS; GIBCO), 100 U/mL penicillin and 100 ug/mL streptomycin (GIBCO).
All cell-based experiments employing inhibitors of DPP-I were performed by addition of the compound (kept below −20° C. as a 10 mM stock solution in DMSO (Sigma)) for indicated time and concentrations to sub-confluent cell cultures growing on culture dishes. All experiments were set up in triplicates. Following the treatment, cells were washed twice in ice-cold PBS (Sigma) and scraped from the culture dish. After another wash in PBS cells were lysed in ice-cold H2O containing 0.3% Triton×100. An additional volume of buffer containing 40 mM MOPS, 2M NaCl, 2 mM EDTA and 20% of glycerol was added. The cell lysate was clarified by centrifugation at 3000 rpm for 10 min. The resulting supernatant was transferred to eppendorf tubes. The Coomassie Plus Protein Assay (Pierece) was used to determine protein levels of the samples.
In Vitro Measurement of DPP-I Activity: […]

Data set [2] is described as follows: Metabolic stability in rat liver microsomes. In kind it is in vitro ADME. As to conditions: pH 7.4; rat liver microsomes 0.3 mg/mL, test compound 1 μM, 37° C.; read-out: Metabolic stability (t1/2 in min.) Rat liver microsomes. Here is the method: Assay for Determination of Metabolic Stability is Rat Liver Microsomes
The assay was performed at Cerep (Seattle) according to the protocol described by Kuhnz et. al. (Kuhnz, W., Gieschen, H. Drug Metab. Dispos., 26, 1120-1127), using rat liver microsomes (0.3 mg/mL), test compound (1 μM), NADP (1 mM), and G6P (5 mM), and G6PDHase (1 U/mL) with 0.6% methanol/0.6% acetonitrile in water. Incubation was performed at 37° C. in phosphate buffer (50 mM, pH=7.4), and the samples were analyzed for remaining product ion (selected reaction monitoring)by HPLC-MS/MS (Thermo Finnigan) at 0, 15, 30, 45 and 60 min. intervals.

Square brackets hold non-standard residues; d marks the D form. Peptide text beside a SMILES is read from it. Phe(3-F) = N[C@@H](Cc1cccc(F)c1)C(=O)O; hPhe = N[C@@H](CCc1ccccc1)C(=O)O; Abu = CC[C@H](N)C(=O)O; azaGly = NNC(=O)O

T1 sequence (P53634 231-394 limits assumed): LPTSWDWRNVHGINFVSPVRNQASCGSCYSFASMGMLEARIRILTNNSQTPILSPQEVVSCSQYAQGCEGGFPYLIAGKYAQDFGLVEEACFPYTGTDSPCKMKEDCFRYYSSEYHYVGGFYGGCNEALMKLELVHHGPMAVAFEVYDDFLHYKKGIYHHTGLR
T1 sequence (P53634 395-463 limits assumed): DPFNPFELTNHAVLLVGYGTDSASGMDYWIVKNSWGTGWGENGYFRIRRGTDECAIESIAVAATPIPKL
T1 sequence (P53634 25-143 limits assumed): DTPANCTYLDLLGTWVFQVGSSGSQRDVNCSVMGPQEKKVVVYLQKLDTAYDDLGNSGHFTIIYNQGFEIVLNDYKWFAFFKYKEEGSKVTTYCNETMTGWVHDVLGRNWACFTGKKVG
Description for Human DPP-I: Human Dipeptidyl Peptidase I (DPP-I) Assay
Using this assay, the IC50 value of a compound of the invention as a DPP-I inhibitor was determined using an AFC substrate.
100 mM sodium phosphate (8.9 g Na2HPO4; M=177.99), 150 mM KCl (5.6 g KCl; M=74.6) and 1.5 mM EDTA (279 mg EDTA; M=372.2) was dissolved in 500 mL H2O, and pH was adjusted to 6.0. Cysteine*HCl (Sigma C-1276; M=157.6), 1 mg/mL assay buffer, corresponding to 6 mM, was added to the solution for activation of the DPP-I enzyme.
Gly-Phe-AFC*TFA (Enzyme Systems Products AFC-033) was used as the substrate for determination of IC50 values. […] The substrate was solubilized in DMSO to give a 7.5 mM stock solution (2.2 mg of substrate was added to 0.5 mL DMSO).
Human DPP-I (hDDP-I; obtained from UniZyme A/S, DK-2970 Horsholm, Denmark) was stored at −20° C. in a buffer containing 2.5 mM Na-phosphate, 150 mM NaCl, 2 mM cysteamine, 50% glycerol, pH 7.0 at a concentration of 2.5 mg/mL. This stock solution was diluted 200 times in the assay buffer.
Th assay was performed in 96-well plates. […] The excitation wavelength was 400 nm, and the emission was measured at 505 nm for 10 minutes at 37° C. […] In the software (SOFTmax Pro) used for data collection from the fluorometer (Molecular Devices: Gemini XS), it was erisured that the measured slopes were linear (R^2>0.99). […]

What is called IC50 is the concentration that inhibits the measured activity by half. `CC[C@H](N)C(=O)NNC(=O)N[C@@H](CCc1ccccc1)C(=O)N[C@@H](Cc1cccc(F)c1)C(N)=O` [Example 11, 1-(2S-2-Aminobutanoyl)-4-[2S-N-[2S-3-(m-fluorophenyl)propan-2-yl-amide]-4-phenylbutan-2-yl-amide]semicarbazide] (H-[Abu][azaGly][hPhe][Phe(3-F)]-NH2): the IC50 was found to be 40 ± 6 nM on Human DPP-I and 4.5 µM on Human liver cathepsin B (human liver cathepsin B, read-out: Secondary enzymatic screening (10 μM cutoff or IC50) Cathepsin B). Besides, the “Inhibition of Cathepsin B (in words)” value at Human liver cathepsin B is “does not inhibit”. Besides, the “Cellular (% inhibition) DPP-I (RBL-2H3 cells)” value in data set [1] turned out to be 54%. In addition, the half-life at 1 μM in data set [2] is 23 min.

(Values after patent US20070155803A1, “Protease inhibitors” (ProZymex A/S, priority 2003, published 2007).)
